According to ChEMBL document CHEMBL3885861, “Open TG-GATES”:

Organism: Rattus norvegicus
Assay: Open TG-GATES - Regimen: Daily Repeat
Type: toxicity, organism-based, Sprague-Dawley
Design: regimen Daily Repeat, gender Male, age 6 weeks
Details: in vivo, po, 200 mg/kg, route gavage, dose level High; for Bas / Eos / Fbg / Hb / Ht / Lym / MCH / MCHC / MCV / Mono / PT / Plat / RBC / Ret / WBC / APTT: tissue Blood; for KIDNEY_L / KIDNEY_R / KIDNEY_TOTAL: tissue Kidney; for ALP / ALT / AST / BUN / CRE / DBIL / GLC / IP / K / LDH / Na / PL / RALB / TBIL / TC / TG / TP / gamma-GTP / Ca: tissue Plasma

Compound `CC(C)Cc1ccc(C(C)C(=O)O)cc1` (stereo not drawn) [IBUPROFEN] has a Bas (72 h, time 3 day) of 0%, an Eos (72 h, time 3 day) of 1% and a Fbg (72 h, time 3 day) of 465.4 mg/dL. It also gave a Hb (72 h, time 3 day) of 9.9 g/dL, a Ht (72 h, time 3 day) of 29.9% and a Lym (72 h, time 3 day) of 66.2%. The MCH (72 h, time 3 day) was 21.1 pg, the MCHC (72 h, time 3 day) was 33.2% and the MCV (72 h, time 3 day) was 63.7 fL. The Mono (72 h, time 3 day) was 4.8%, the PT (72 h, time 3 day) was 15.1 s and the Plat (72 h, time 3 day) was 111.5 x10_4/uL. The RBC (72 h, time 3 day) was 472.2 x10_4/ul, the Ret (72 h, time 3 day) was 11% and the WBC (72 h, time 3 day) was 175.1 x10_2/uL. For the same compound, the KIDNEY_L (72 h, time 3 day) was 0.9 g, the KIDNEY_R (72 h, time 3 day) was 1 g and the KIDNEY_TOTAL (72 h, time 3 day) was 1.9 g. For the same compound, the ALP (72 h, time 3 day) was 841.6 IU/L, the ALT (72 h, time 3 day) was 34.4 IU/L and the AST (72 h, time 3 day) was 59.4 IU/L. It also gave a BUN (72 h, time 3 day) of 16.2 mg/dL, a CRE (72 h, time 3 day) of 0.1 mg/dL and a DBIL (72 h, time 3 day) of 0 mg/dL. It also gave a GLC (72 h, time 3 day) of 171 mg/dL, an IP (72 h, time 3 day) of 7.9 mg/dL and a K (72 h, time 3 day) of 4.5 meq/L. It also gave an LDH (72 h, time 3 day) of 122.6 IU/L, a Na (72 h, time 3 day) of 140.8 meq/L and a PL (72 h, time 3 day) of 147.2 mg/dL. It also gave an RALB (72 h, time 3 day) of 2.4 g/dL, a TBIL (72 h, time 3 day) of 0.004 mg/dL and a TC (72 h, time 3 day) of 86 mg/dL. For the same compound, the TG (72 h, time 3 day) was 116.2 mg/dL, the TP (72 h, time 3 day) was 4.8 g/dL and the gamma-GTP (72 h, time 3 day) was 1.6 IU/L. For the same compound, the TERMINAL_BW ([…], time 7 day) was 228.5 g, the TERMINAL_BW ([…], time 14 day) was 217 g and the TERMINAL_BW ([…], time 28 day) was 319 g. The APTT ([…], time 7 day) was 20.3 s, the Bas ([…], time 7 day) was 0% and the Eos ([…], time 7 day) was 1.4%. It also gave a Fbg ([…], time 7 day) of 360.2 mg/dL, a Hb ([…], time 7 day) of 9.5 g/dL and a Ht ([…], time 7 day) of 29.8%. The Lym ([…], time 7 day) was 65.6%, the MCH ([…], time 7 day) was 21.1 pg and the MCV ([…], time 7 day) was 66.4 fL. The Mono ([…], time 7 day) was 3.6%, the PT ([…], time 7 day) was 16.4 s and the Plat ([…], time 7 day) was 198 x10_4/uL. For the same compound, the RBC ([…], time 7 day) was 450 x10_4/ul, the Ret ([…], time 7 day) was 20.9% and the WBC ([…], time 7 day) was 213.7 x10_2/uL. The APTT ([…], time 14 day) was 18.9 s, the Bas ([…], time 14 day) was 0% and the Eos ([…], time 14 day) was 1.2%. For the same compound, the Fbg ([…], time 14 day) was 455.2 mg/dL, the Hb ([…], time 14 day) was 6.4 g/dL and the Ht ([…], time 14 day) was 23.2%. The Lym ([…], time 14 day) was 56.6%, the MCH ([…], time 14 day) was 17.8 pg and the MCHC ([…], time 14 day) was 27.3%. For the same compound, the MCV ([…], time 14 day) was 65.3 fL, the Mono ([…], time 14 day) was 5% and the PT ([…], time 14 day) was 16.5 s. It also gave a Plat ([…], time 14 day) of 274.3 x10_4/uL, an RBC ([…], time 14 day) of 354.6 x10_4/ul and a Ret ([…], time 14 day) of 36.9%. The WBC ([…], time 14 day) was 225.9 x10_2/uL, the APTT ([…], time 28 day) was 19.1 s and the Bas ([…], time 28 day) was 0%. For the same compound, the Eos ([…], time 28 day) was 2.2%, the Fbg ([…], time 28 day) was 434.8 mg/dL and the Hb ([…], time 28 day) was 7.6 g/dL. The Lym ([…], time 28 day) was 48.8%, the MCH ([…], time 28 day) was 17.5 pg and the MCHC ([…], time 28 day) was 28%. For the same compound, the MCV ([…], time 28 day) was 62.7 fL, the Mono ([…], time 28 day) was 3% and the PT ([…], time 28 day) was 16.6 s. It also gave a Plat ([…], time 28 day) of 195.7 x10_4/uL, an RBC ([…], time 28 day) of 433.5 x10_4/ul and a WBC ([…], time 28 day) of 190.5 x10_2/uL. The KIDNEY_L ([…], time 7 day) was 1 g, the KIDNEY_R ([…], time 7 day) was 1 g and the KIDNEY_TOTAL ([…], time 7 day) was 2.1 g. It also gave a KIDNEY_L ([…], time 14 day) of 1 g, a KIDNEY_R ([…], time 14 day) of 1.1 g and a KIDNEY_TOTAL ([…], time 14 day) of 2.1 g. The KIDNEY_L ([…], time 28 day) was 1.4 g, the KIDNEY_R ([…], time 28 day) was 1.4 g and the KIDNEY_TOTAL ([…], time 28 day) was 2.8 g. The ALP ([…], time 7 day) was 793 IU/L, the AST ([…], time 7 day) was 63 IU/L and the BUN ([…], time 7 day) was 18.6 mg/dL. The CRE ([…], time 7 day) was 0.2 mg/dL, the DBIL ([…], time 7 day) was 0 mg/dL and the GLC ([…], time 7 day) was 179.6 mg/dL. It also gave an IP ([…], time 7 day) of 7.8 mg/dL, a K ([…], time 7 day) of 4.3 meq/L and an LDH ([…], time 7 day) of 145 IU/L. It also gave a Na ([…], time 7 day) of 140.4 meq/L, a PL ([…], time 7 day) of 161.6 mg/dL and an RALB ([…], time 7 day) of 2.7 g/dL. For the same compound, the TBIL ([…], time 7 day) was 0.002 mg/dL, the TC ([…], time 7 day) was 84 mg/dL and the TG ([…], time 7 day) was 148.6 mg/dL. It also gave a TP ([…], time 7 day) of 5.1 g/dL, a gamma-GTP ([…], time 7 day) of 2 IU/L and an ALP ([…], time 14 day) of 502.2 IU/L. For the same compound, the ALT ([…], time 14 day) was 25.6 IU/L, the AST ([…], time 14 day) was 55.2 IU/L and the BUN ([…], time 14 day) was 15.4 mg/dL. It also gave a CRE ([…], time 14 day) of 0.2 mg/dL, a Ca ([…], time 14 day) of 10.2 mg/dL and a DBIL ([…], time 14 day) of 0 mg/dL. The GLC ([…], time 14 day) was 159.6 mg/dL, the IP ([…], time 14 day) was 8.4 mg/dL and the K ([…], time 14 day) was 4.4 meq/L. For the same compound, the LDH ([…], time 14 day) was 145.8 IU/L, the Na ([…], time 14 day) was 140.4 meq/L and the PL ([…], time 14 day) was 167.4 mg/dL. It also gave an RALB ([…], time 14 day) of 2.2 g/dL, a TBIL ([…], time 14 day) of 0.004 mg/dL and a TC ([…], time 14 day) of 81.2 mg/dL. It also gave a TG ([…], time 14 day) of 239.2 mg/dL, a TP ([…], time 14 day) of 4.8 g/dL and a gamma-GTP ([…], time 14 day) of 2.6 IU/L. It also gave an ALP ([…], time 28 day) of 493.2 IU/L, an ALT ([…], time 28 day) of 30 IU/L and an AST ([…], time 28 day) of 64 IU/L. For the same compound, the BUN ([…], time 28 day) was 18 mg/dL, the CRE ([…], time 28 day) was 0.2 mg/dL and the Ca ([…], time 28 day) was 10.4 mg/dL. The DBIL ([…], time 28 day) was 0 mg/dL, the GLC ([…], time 28 day) was 164.2 mg/dL and the IP ([…], time 28 day) was 7 mg/dL. It also gave a K ([…], time 28 day) of 4.2 meq/L, an LDH ([…], time 28 day) of 158.8 IU/L and a Na ([…], time 28 day) of 141.2 meq/L. It also gave a PL ([…], time 28 day) of 191.5 mg/dL, an RALB ([…], time 28 day) of 2.4 g/dL and a TBIL ([…], time 28 day) of 0 mg/dL. For the same compound, the TC ([…], time 28 day) was 95 mg/dL, the TG ([…], time 28 day) was 283.8 mg/dL and the TP ([…], time 28 day) was 5.1 g/dL. For the same compound, the gamma-GTP ([…], time 28 day) was 4.2 IU/L.
